Values joined by “and” are separate entries in the source; they are usually repeats but may differ in a detail not shown here. Equal values may be shown once. “Also recorded” adds a separate entry of the source. Read-outs that look alike come from different tables or passages of the source. One block for each molecule: values may come before it. Where a SMILES comes first, the peptide text is derived from it. [ ]: non-standard residue; d: D form. The star is where a group is joined. X1 = CC(=O)O[C@@]12CO[C@@H]1C[C@H](O)[C@@]1(C)C(=O)[C@H](O)C3=C(C)[C@@H](OC(=O)[C@H](OC(=O)CCC(=O)*)[C@@H](NC(=O)OC(C)(C)C)c4ccccc4)C[C@@](O)([C@@H](OC(=O)c4ccccc4)[C@H]21)C3(C)C; Nle = CCCC[C@H](N)C(=O)O
How the values were obtained:
[1] = cited from earlier work
[2] = system: MDA-MB-231 breast cancer cells; assay: [3H]-Thymidine Incorporation assay; type: cell-based; conditions: Homo sapiens, GraphPad Prism
Procedure: FIG. 19 depicts the in vitro anticancer properties of DoceKA against MDA-MB-231 breast cancer cells as determined using the [3H]-Thymidine Incorporation assay. Incorporated [3H]-Thymidine was plotted for each drug concentration. IC50 values (nM) were calculated using the GraphPad Prism software. […] is a set of graphs depicting the cell-cycle distribution of MDA-MB231 cells determined based on cellular DNA content using flow cytometry after 24 hours of treatment with 2 μM Docetaxel or 1 μM DoceKA.

[3] = Blood cell / neutrophil counts after treatment; type: in vivo, nude mice
Text: FIG. 27A illustrates the effect on lymphocytes after 3 treatments with different concentrations of Docetaxel or DoceKA. FIG. 27B illustrates the effect on platelets after 3 treatments with different concentrations of Docetaxel or DoceKA. FIG. 27C illustrates the effect on neutrophils after 3 treatments with different concentrations of Docetaxel or DoceKA. IP means intraperitoneal administration, while IV means intravenous delivery.
FIG. 28 depicts the preliminary toxicity data on DoceKA, specifically, the neutrophils count (g/L) after DoceKA treatments at different dosages of Docetaxel or DoceKA.

[4] = system: tubulin; assay: Tubulin / microtubule polymerization; type: biochemical
Procedure: FIGS. 23A and 23B depict the DoceKA impact on tubulin polymerization. More particularly, FIG. 23A illustrates cells treated with vehicle (DMSO), 2 μM Docetaxel or 1 μM DoceKA for 24 hours, fixed and immunostained with anti-a-tubulin antibody and imaged using confocal microscopy. […] FIG. 23B illustrates that in a fluorescence-based polymerization assay, the effect of Docetaxel (2 μM) and DoceKA (1 μM) on polymerization of purified tubulin was examined in vitro. Paclitaxel (2 μM) and Vinblastine (2 μM) were added as controls for tubulin-polymerizing and tubulin-depolymerizing agents, respectively. Tubulin assembly into microtubules was determined by an increase in fluorescence emission (Ex. 340-360 nm±20 nm; Em. 410-460 nm±20 nm).

[5] = DoceKA pharmacokinetics in mice (plasma, UPLC/MS); type: in vivo, CD-1 mice; conditions: for half-life: iv, 50 mg/kg
Procedure: FIG. 29A illustrates the plasma concentration for DoceKA and released Docetaxel (BDL) at progressive time intervals. FIG. 29B illustrates the PK in CD-1 mice. […] Plasma was collected at different time points. DoceKA and released Docetaxel were extracted with acetonitrile. DoceKA and released Docetaxel, were quantified by UPLC/MS using Paclitaxel as the internal standard: 2 μl and 10 μl of supematants were injected for DoceKA and Docetaxel directly without lyophilization.
PK data on Docetaxel were obtained from refs. 50 and 51. PK analysis for DoceKA was carried out using PK solutions software. Docetaxel PK in mice is biphasic and linear between 13-62 mg/kg. […] Both have similar half-lives. DoceKA has a lower clearance (CL) and Volume of distribution (Vd). These preliminary data need to be confirmed with more data (shorter and longer time points).

[6] = system: ES-2 ovarian cancer cells; assay: In vitro vasculogenic mimicry, Matrigel tube formation assay (ES-2); type: cell-based, human
[7] = system: MDA-MB-231 cells; assay: Real-time cell migration, xCELLigence (MDA-MB-231); type: cell-based
Procedure: (§1) In vitro vasculogenic mimicry of cancer cells was assessed using a Matrigel tube formation assay. In brief, each well of a 96-well plate was pre-coated with Matrigel. ES-2 ovarian cancer or MDA-MB-231 TNBC cell suspensions were seeded on top of Matrigel. 3D-tubular structures were analyzed and quantified using Wimasis Analysis software. Real-time cell migration was evaluated using the ×CELLigence system. Sortilin gene silencing was performed with specific siRNA. Effects of Doxorubicin-KA-peptide conjugate (DoxKA) KBA-106 represented by formula Acetyl-GVRAK(doxorubicin)AGVRN(Nle)FK(doxorubicin)SESY (Formula (XXVIII)) and Docetaxel-KA-peptide conjugate (DoceKA) represented by formula Acetyl-GVRAK(docetaxel)AGVRN(Nle)FK(docetaxel)SESY (Formula (XXIII)) targeting Sortilin on vasculogenic mimicry and cell migration were determined.
(§2) MDA-MB-231 cells were used as a TNBC cell model for in vitro and in vivo xenograft (CD1 nude mice) assays. Cell migration was assessed using the ×CELLigence real-time system, whereas MTT assay was used for cell proliferation analysis. Apoptosis biomarkers expression was assessed by immunoblotting.

[8] = system: ES-2 ovarian cancer cells; assay: Real-time cell migration, xCELLigence (ES-2); type: cell-based, human
Procedure: as §1

[9] = system: MDA-MB-231 cells; assay: Cell death / apoptosis (Annexin V-FITC/PI); type: cell-based
Procedure: MDA-MB-231 cells treated for 5 hours with control (vehicle) or with increasing concentrations of Docetaxel or DoceKA. Cells were then harvested and the rate of apoptosis was determined following staining with Annexin V-FITC and propidium iodide (PI). Cells were analyzed by flow cytometry.

[10] = system: IL-6, Survivin, Bcl-xL and mutant p53; assay: Immunoblotting of pro-survival biomarkers; type: cell-based; conditions: MDA-MB-231
Text: FIGS. 22A and 22B illustrate the molecular mechanism of cell death induction by DoceKA in MDA-MB-231 cells. FIG. 22A illustrates the immunoblotting experiment showing the expression level of IL-6, Survivin, Bcl-xi and mutated p53 in MDA-MB-231 cell after treatment with Docetaxel and DoceKA. GAPDH was used as a control. FIG. 22B data are representative of three independent experiments and the bar graphs show the densitometric quantification of IL-6, Survivin, Bcl-xL and p53 expression as compared to GAPDH. The mean value of the control group was set to be 1.0.
as §2

[11] = system: MDA-MB-231 cells; assay: MTT cell proliferation assay; type: cell-based
Procedure: as §2

[12] = system: MDA-MB-231 TNBC cells; assay: In vitro vasculogenic mimicry, Matrigel tube formation assay (MDA-MB-231); type: cell-based; conditions: MDA-MB231; FIG. 43
Procedure: as §1

[13] = system: MDA-MB-231 xenograft tumor; assay: MDA-MB-231 xenograft tumor model; type: in vivo, CD1 nude mice; conditions: murine MDA-MB-231 xenograft
Procedure: as §2

[14] = CD-1, mouse, plasma, DoceKA 50 mg/kg, intravenous, preliminary data

IC50 [2]: 0.68 nM
Compound: CC(=O)O[C@@]12CO[C@@H]1C[C@H](O)[C@@]1(C)C(=O)[C@H](O)C3=C(C)[C@@H](OC(=O)[C@H](O)[C@@H](NC(=O)OC(C)(C)C)c4ccccc4)C[C@@](O)([C@@H](OC(=O)c4ccccc4)[C@H]21)C3(C)C [Docetaxel, docetaxel]
CL ([1]; Docetaxel 10 mg/kg, mice): 35 mL/min/kg | Vd ([1]; Docetaxel 10 mg/kg, mice): 2.2 to 5 L/kg | t½ adsorption distribution ([1]; Docetaxel 10 mg/kg, mice): 7 min | t½ elimination ([1]; Docetaxel 10 mg/kg, mice): 72 min | Reported Cmax ([1]; Docetaxel dosed at 20 mg/kg): about 20 μg/ml | Cmax ([1]; Docetaxel dosed at 20 mg/kg, read-out: Reported Cmax): ~25 µM | neutrophils count ([3]; four days after a single injection at the maximum tolerable dose): drastic reduction in neutrophils count

Compound: CCCC[C@H](NC(=O)[C@H](CC(N)=O)NC(=O)[C@H](CCCNC(=N)N)NC(=O)[C@@H](NC(=O)CNC(=O)[C@H](C)NC(=O)[C@H](CCCCNC(=O)CCC(=O)O[C@@H](C(=O)O[C@H]1C[C@@]2(O)[C@@H](OC(=O)c3ccccc3)[C@@H]3[C@]4(OC(C)=O)CO[C@@H]4C[C@H](O)[C@@]3(C)C(=O)[C@H](O)C(=C1C)C2(C)C)[C@@H](NC(=O)OC(C)(C)C)c1ccccc1)NC(=O)[C@H](C)NC(=O)[C@H](CCCNC(=N)N)NC(=O)[C@@H](NC(=O)CNC(C)=O)C(C)C)C(C)C)C(=O)N[C@@H](Cc1ccccc1)C(=O)N[C@@H](CCCCNC(=O)CCC(=O)O[C@@H](C(=O)O[C@H]1C[C@@]2(O)[C@@H](OC(=O)c3ccccc3)[C@@H]3[C@]4(OC(C)=O)CO[C@@H]4C[C@H](O)[C@@]3(C)C(=O)[C@H](O)C(=C1C)C2(C)C)[C@@H](NC(=O)OC(C)(C)C)c1ccccc1)C(=O)N[C@@H](CO)C(=O)N[C@@H](CCC(=O)O)C(=O)N[C@@H](CO)C(=O)N[C@@H](Cc1ccc(O)cc1)C(=O)O [DoceKA, Acetyl-GVRAK(docetaxel)AGVRN(Nle)FK(docetaxel)SESY] (Ac-GVRAK(X1)AGVRN[Nle]FK(X1)SESY-OH)
microtubules polymerization [4]: altered microtubules polymerization | half-life ([5]; CD-1, mouse, plasma, DoceKA 50 mg/kg, intravenous, preliminary data, read-out: t½ adsorption distribution): 6 to 20 min | half-life ([5]; CD-1, mouse, plasma, DoceKA 50 mg/kg, intravenous, preliminary data, read-out: t½ elimination): 90 to 150 min | AUC [5, 14]: 614 µM·h and 2.3e+06 ng·h/mL | Cmax [5, 14]: 1.6e+06 ng/mL and 437 µM | Vd [5, 14]: 0.04 L/kg | clearance [5, 14]: 0.3 mL/min/kg | plasma concentration of released Docetaxel ([5]; DoceKA 20 mg/kg intravenously, at 0.083, 0.25 and 4 hours): below the limit of quantification | AUC (tissue exposure) of DoceKA compared to Docetaxel ([5]; higher for DoceKA): about 29 fold | Cmax of DoceKA compared to Docetaxel ([5]; higher, compared to Docetaxel (20 mg/kg)): about 18 fold | concentration at which total number of loops and total tube length are inhibited ([6]; ES-2 on Matrigel): low pM concentration; also recorded: very low pM concentration; also recorded: inhibited at low nM concentrations | vasculogenic mimicry inhibition compared to unconjugated drug ([6]; ES-2 on Matrigel, 12 hrs, equivalent concentration of free drug (Docetaxel 600 pM)): stronger inhibition of vasculogenic mimicry than unconjugated free drugs; also recorded: stronger inhibition of 3Dtubulare structures than Docetaxel alone | IC50 values for vasculogenic mimicry inhibition ([6]; Example 2, ovarian cancer and TNBC cells): low nM to pM | cell migration [7]: inhibited; also recorded: potent anti-proliferative and anti-migratory activities | cell migration [8]: inhibited | cell death induction compared to free Docetaxel [9]: faster and higher cell death mechanisms | expression of pro-survival biomarkers [10]: down-regulation of IL-6, Survivin, Bcl-xL and mutant p53 | cell proliferation [11]: potent anti-proliferative and anti-migratory activities | vasculogenic mimicry inhibition compared to Docetaxel alone [12]: stronger inhibition of vasculogenic mimicry | neutrophils count ([3]; after six injections): remained within normal limits | effect on blood cells (lymphocytes, platelets, neutrophils) ([3]; nude mice, 3 treatments): absence of effect | tumor regression and survival compared to Docetaxel [13]: greater tumor regression capacity with a prolonged survival

Source: patent US20220000971A1, “METHODS AND COMPOUNDS FOR TARGETING SORTILIN RECEPTORS AND INHIBITING VASCULOGENIC MIMICRY” (TRANSFERT PLUS, S.E.C., priority 2018, published 2022)
